{"source": "patent US20050079222A1", "about": "“Production of nanoparticles from methyl vinyl ether and maleic anhydride for the administration of hydrophilic pharmaceuticals, more particularly of puric and pyrimidinic bases” (priority 2001, published 2005)", "origin": "cited, not measured here", "tested_on": "tumors", "conditions": "versus 5-fluorouracile", "data": [{"smiles": "O=c1[nH]c(=O)n([C@@H]2O[C@H](CO)[C@@H](O)[C@H]2O)cc1F", "note": "[5-fluorouridine, 2,4-dioxo-5-fluoropyrimidine riboside]", "values": [{"measurement": "antitumoral activity, times more potent than 5-fluorouracile and other derivatives", "value": 100, "unit": "times"}]}]}
